From PubChem BioAssay (NCI)
Where “and” joins values, the source holds several entries; their conditions need not be identical. Identical values can stand only once.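 Briefly, cells in 96-well plates were exposed to five compound concentrations for 48 h, and endpoints were estimated by linear interpolation. Abbreviation: GI50, concentration required for 50% inhibition of growth. Definition used: TGI = concentration required for complete inhibition of growth.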

Assays:
Assay in all cases: DTP human tumour cell line panel, 48 h
HCT-15 colon = tested on: HCT-15 colon
DU-145 prostate = tested on: DU-145 prostate
HT29 colon = tested on: HT29 colon
SF-539 CNS = tested on: SF-539 CNS
MALME-3M melanoma = tested on: MALME-3M melanoma
KM12 colon = tested on: KM12 colon
MDA-MB-231 breast = tested on: MDA-MB-231 breast
SK-MEL-28 melanoma = tested on: SK-MEL-28 melanoma
M14 melanoma = tested on: M14 melanoma
NCI-H460 lung = tested on: NCI-H460 lung
NCI/ADR-RES ovarian = tested on: NCI/ADR-RES ovarian
SNB-75 CNS = tested on: SNB-75 CNS
LOX IMVI melanoma = tested on: LOX IMVI melanoma
TK-10 renal = tested on: TK-10 renal
U251 CNS = tested on: U251 CNS
K-562 leukemia = tested on: K-562 leukemia
A549 NSCLC = tested on: A549 NSCLC
OVCAR-5 ovarian = tested on: OVCAR-5 ovarian
SF-268 CNS = tested on: SF-268 CNS
UACC-62 melanoma = tested on: UACC-62 melanoma
OVCAR-8 ovarian = tested on: OVCAR-8 ovarian
MDA-MB-435 = tested on: MDA-MB-435
HOP-92 NSCLC = tested on: HOP-92 NSCLC
ACHN renal = tested on: ACHN renal
HL-60(TB) leukemia = tested on: HL-60(TB) leukemia
UO-31 renal = tested on: UO-31 renal
SF-295 CNS = tested on: SF-295 CNS
BT-549 breast = tested on: BT-549 breast
SK-OV-3 ovarian = tested on: SK-OV-3 ovarian
UACC-257 melanoma = tested on: UACC-257 melanoma
NCI-H226 lung = tested on: NCI-H226 lung
SK-MEL-2 melanoma = tested on: SK-MEL-2 melanoma

Cc1nc(Nc2ncc(C(=O)Nc3c(C)cccc3Cl)s2)cc(N2CCN(CCO)CC2)n1
GI50 (HCT-15 colon): 792 nM [middle of 4 runs]
GI50 (DU-145 prostate): 158 nM [middle of 4 runs]
TGI (DU-145 prostate): > 10 µM and 20 µM and 13.5 µM
GI50 (HT29 colon): 0.0197 µM and 0.0193 µM and 0.0272 µM
GI50 (SF-539 CNS): 53.3 nM [middle of 4 runs]
GI50 (MALME-3M melanoma): 6.6 µM [middle of 4 runs]
GI50 (KM12 colon): 7.66 µM [middle of 4 runs]
GI50 (MDA-MB-231 breast): 19.7 nM [middle of 4 runs]
TGI (SK-MEL-28 melanoma): 29 µM and > 10 µM and 20 µM
GI50 (M14 melanoma): 3.51 µM [middle of 4 runs]
GI50 (NCI-H460 lung): 8.34 µM [middle of 4 runs]
GI50 (NCI/ADR-RES ovarian): 3.2 µM [middle of 4 runs]
GI50 (SNB-75 CNS): < 0.01 µM and 0.00468 µM and < 0.0111 µM
TGI (SNB-75 CNS): 0.0257 µM and 0.0563 µM and 0.0587 µM
GI50 (LOX IMVI melanoma): 14.2 nM [middle of 4 runs]
GI50 (TK-10 renal): 0.0222 µM and 0.0109 µM and 0.00843 µM
GI50 (U251 CNS): 3.17 µM [middle of 4 runs]
GI50 (K-562 leukemia): < 0.01 µM and 0.002 µM
GI50 (A549 NSCLC): 49.9 nM [middle of 4 runs]
GI50 (OVCAR-5 ovarian): 38.1 nM [middle of 4 runs]
GI50 (SF-268 CNS): 70.4 nM [middle of 4 runs]
GI50 (UACC-62 melanoma): 5.69 µM [middle of 4 runs]
GI50 (OVCAR-8 ovarian): 55.8 nM [middle of 4 runs]
GI50 (MDA-MB-435): 5.7 µM [middle of 4 runs]

N=C(N)c1ccc(-c2ccc(-c3ccc(Cl)cc3Cl)s2)cc1
GI50 (DU-145 prostate): 1.79 µM
TGI (DU-145 prostate): 3.19 µM
GI50 (MALME-3M melanoma): 1.74 µM
TGI (MALME-3M melanoma): 3.29 µM
GI50 (HOP-92 NSCLC): 1.58 µM
TGI (HOP-92 NSCLC): 3.17 µM
GI50 (ACHN renal): 1.7 µM
TGI (ACHN renal): 3.07 µM
GI50 (HL-60(TB) leukemia): 1.97 µM
TGI (HL-60(TB) leukemia): 4.49 µM
GI50 (UO-31 renal): 1.58 µM
TGI (UO-31 renal): 3 µM
GI50 (SF-295 CNS): 1.77 µM
TGI (SF-295 CNS): 3.19 µM
GI50 (BT-549 breast): 2.18 µM
TGI (BT-549 breast): 6.62 µM
GI50 (OVCAR-5 ovarian): 1.79 µM
TGI (OVCAR-5 ovarian): 3.29 µM
GI50 (UACC-62 melanoma): 1.73 µM
TGI (UACC-62 melanoma): 3.19 µM

N=C(N)c1ccc(-c2ccc(-c3ccc(Cl)c(Cl)c3)s2)nc1
GI50 (SK-OV-3 ovarian): 8.06 µM
TGI (SK-OV-3 ovarian): 31.8 µM
GI50 (HL-60(TB) leukemia): 1.89 µM
TGI (HL-60(TB) leukemia): 4.39 µM
GI50 (BT-549 breast): 3.18 µM
TGI (BT-549 breast): 31.6 µM
GI50 (UACC-257 melanoma): 2.14 µM
TGI (UACC-257 melanoma): 4.77 µM
GI50 (NCI-H226 lung): 1.94 µM
TGI (NCI-H226 lung): 4.63 µM
GI50 (SK-MEL-2 melanoma): 3.43 µM
TGI (SK-MEL-2 melanoma): 15.2 µM
